What was measured:
[1] = target: Voltage-gated inwardly rectifying potassium channel KCNH2 (Homo sapiens, UniProt Q12809); test: Inhibition of human ERG by high throughput automated patch clamp method
[2] = Oral bioavailability in human; assay type: ADME, organism-based; settings: in vivo
[3] = Half life in human; assay type: ADME
[4] = target: T1, Beta-2 adrenergic receptor (Homo sapiens, UniProt P07550); test: Agonist activity at human beta2 adrenoceptor
[5] = target: Muscarinic acetylcholine receptor M3 (Homo sapiens, UniProt P20309); test: Antagonist activity at human M3 receptor
[6] = target: T1, Beta-2 adrenergic receptor; test: Inhibition of beta2 adrenoceptor (unknown origin)
[7] = target: 3',5'-cyclic-AMP phosphodiesterase 4B (Homo sapiens, UniProt Q07343); test: Inhibition of PDE4B2 (unknown origin)
[8] = target: Macrophage metalloelastase (Homo sapiens, UniProt P39900); test: Inhibition of MMP12 (unknown origin)
[9] = target: T2, Muscarinic acetylcholine receptor M2 (Homo sapiens, UniProt P08172); test: Inhibition of M2 receptor (unknown origin)
T2 sequence (P08172 whole entry): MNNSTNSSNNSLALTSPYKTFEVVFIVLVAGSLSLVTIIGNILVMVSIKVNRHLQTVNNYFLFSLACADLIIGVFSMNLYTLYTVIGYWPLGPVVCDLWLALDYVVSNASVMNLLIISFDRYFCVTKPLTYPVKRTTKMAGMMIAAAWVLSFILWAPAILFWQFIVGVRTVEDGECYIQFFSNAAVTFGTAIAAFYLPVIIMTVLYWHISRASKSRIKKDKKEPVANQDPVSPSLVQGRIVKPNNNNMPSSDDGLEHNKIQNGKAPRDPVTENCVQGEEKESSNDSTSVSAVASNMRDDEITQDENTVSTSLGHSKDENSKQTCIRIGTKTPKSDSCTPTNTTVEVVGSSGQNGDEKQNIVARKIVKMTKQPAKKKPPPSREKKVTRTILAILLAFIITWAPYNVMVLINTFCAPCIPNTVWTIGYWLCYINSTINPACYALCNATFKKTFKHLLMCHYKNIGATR

[10] = Inhibition of TNFalpha-induced NFkappaB (unknown origin); design: species or system Homo sapiens

T1 sequence (P07550 whole entry): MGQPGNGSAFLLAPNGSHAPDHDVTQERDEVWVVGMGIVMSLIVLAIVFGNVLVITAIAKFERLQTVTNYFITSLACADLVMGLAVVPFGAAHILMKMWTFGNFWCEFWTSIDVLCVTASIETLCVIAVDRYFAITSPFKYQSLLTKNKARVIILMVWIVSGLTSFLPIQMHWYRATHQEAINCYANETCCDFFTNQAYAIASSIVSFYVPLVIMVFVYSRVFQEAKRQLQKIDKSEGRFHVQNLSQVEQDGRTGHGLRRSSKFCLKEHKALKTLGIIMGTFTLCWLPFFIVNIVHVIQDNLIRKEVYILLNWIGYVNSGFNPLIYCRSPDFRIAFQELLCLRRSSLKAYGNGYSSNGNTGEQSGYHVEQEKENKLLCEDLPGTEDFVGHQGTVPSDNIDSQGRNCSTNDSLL
Chain of Muscarinic acetylcholine receptor M3 (P20309 whole entry): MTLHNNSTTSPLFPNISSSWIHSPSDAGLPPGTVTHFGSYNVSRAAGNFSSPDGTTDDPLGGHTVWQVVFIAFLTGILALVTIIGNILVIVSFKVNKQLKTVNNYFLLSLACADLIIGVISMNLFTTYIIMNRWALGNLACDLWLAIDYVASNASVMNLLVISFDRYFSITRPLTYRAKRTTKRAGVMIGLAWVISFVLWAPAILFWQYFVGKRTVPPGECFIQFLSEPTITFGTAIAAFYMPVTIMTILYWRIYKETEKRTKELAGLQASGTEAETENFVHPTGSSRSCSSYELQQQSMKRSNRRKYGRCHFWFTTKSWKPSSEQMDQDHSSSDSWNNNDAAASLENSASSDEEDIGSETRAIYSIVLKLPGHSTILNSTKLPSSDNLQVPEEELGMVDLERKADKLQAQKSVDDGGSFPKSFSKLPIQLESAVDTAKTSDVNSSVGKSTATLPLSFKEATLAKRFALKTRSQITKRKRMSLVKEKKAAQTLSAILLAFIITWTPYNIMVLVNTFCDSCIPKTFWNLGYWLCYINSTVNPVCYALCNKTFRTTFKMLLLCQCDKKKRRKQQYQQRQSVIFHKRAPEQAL
Chain of Macrophage metalloelastase (P39900 whole entry): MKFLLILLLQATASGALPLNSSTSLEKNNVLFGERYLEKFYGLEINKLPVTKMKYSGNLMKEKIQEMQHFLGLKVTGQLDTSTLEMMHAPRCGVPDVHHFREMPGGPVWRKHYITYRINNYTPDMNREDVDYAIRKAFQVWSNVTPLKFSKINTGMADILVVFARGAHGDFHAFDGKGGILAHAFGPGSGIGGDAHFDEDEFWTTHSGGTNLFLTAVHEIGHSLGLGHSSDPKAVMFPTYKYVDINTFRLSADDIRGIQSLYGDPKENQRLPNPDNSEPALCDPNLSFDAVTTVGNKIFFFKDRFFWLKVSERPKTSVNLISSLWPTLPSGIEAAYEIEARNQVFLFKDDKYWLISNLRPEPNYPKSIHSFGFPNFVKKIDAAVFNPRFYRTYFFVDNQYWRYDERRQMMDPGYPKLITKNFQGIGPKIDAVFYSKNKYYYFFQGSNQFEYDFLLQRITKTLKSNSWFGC
Chain of Voltage-gated inwardly rectifying potassium channel KCNH2 (Q12809 whole entry): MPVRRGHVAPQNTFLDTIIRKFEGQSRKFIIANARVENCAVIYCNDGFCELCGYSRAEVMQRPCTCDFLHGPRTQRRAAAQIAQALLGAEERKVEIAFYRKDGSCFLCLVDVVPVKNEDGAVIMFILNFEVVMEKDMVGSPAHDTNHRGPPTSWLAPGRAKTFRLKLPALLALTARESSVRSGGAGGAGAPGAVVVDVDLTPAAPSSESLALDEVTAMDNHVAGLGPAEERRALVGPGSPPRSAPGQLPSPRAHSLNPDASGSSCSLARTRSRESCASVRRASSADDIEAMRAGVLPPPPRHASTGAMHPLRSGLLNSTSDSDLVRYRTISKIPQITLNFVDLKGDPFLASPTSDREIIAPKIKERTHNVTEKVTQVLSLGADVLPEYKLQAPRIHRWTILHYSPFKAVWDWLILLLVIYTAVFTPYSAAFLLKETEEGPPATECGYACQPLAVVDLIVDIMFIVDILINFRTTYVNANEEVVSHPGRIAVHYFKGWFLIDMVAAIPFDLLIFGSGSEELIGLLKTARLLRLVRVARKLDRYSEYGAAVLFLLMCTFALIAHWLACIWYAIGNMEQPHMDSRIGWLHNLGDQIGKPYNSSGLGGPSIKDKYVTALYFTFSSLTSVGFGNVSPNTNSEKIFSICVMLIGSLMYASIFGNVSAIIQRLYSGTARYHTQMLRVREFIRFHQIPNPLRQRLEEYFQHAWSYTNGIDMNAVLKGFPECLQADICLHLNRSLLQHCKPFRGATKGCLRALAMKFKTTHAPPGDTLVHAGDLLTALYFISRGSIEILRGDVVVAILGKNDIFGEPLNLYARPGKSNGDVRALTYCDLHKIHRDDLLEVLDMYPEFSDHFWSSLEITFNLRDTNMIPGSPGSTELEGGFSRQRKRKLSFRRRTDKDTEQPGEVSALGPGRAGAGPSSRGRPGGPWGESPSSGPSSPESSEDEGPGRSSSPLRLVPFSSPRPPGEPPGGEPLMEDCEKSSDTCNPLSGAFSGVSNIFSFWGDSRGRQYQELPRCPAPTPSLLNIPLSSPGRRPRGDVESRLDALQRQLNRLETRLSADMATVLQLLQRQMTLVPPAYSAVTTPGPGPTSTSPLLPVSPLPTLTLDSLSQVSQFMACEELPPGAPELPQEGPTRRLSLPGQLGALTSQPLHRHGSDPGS
Chain of 3',5'-cyclic-AMP phosphodiesterase 4B (Q07343 whole entry): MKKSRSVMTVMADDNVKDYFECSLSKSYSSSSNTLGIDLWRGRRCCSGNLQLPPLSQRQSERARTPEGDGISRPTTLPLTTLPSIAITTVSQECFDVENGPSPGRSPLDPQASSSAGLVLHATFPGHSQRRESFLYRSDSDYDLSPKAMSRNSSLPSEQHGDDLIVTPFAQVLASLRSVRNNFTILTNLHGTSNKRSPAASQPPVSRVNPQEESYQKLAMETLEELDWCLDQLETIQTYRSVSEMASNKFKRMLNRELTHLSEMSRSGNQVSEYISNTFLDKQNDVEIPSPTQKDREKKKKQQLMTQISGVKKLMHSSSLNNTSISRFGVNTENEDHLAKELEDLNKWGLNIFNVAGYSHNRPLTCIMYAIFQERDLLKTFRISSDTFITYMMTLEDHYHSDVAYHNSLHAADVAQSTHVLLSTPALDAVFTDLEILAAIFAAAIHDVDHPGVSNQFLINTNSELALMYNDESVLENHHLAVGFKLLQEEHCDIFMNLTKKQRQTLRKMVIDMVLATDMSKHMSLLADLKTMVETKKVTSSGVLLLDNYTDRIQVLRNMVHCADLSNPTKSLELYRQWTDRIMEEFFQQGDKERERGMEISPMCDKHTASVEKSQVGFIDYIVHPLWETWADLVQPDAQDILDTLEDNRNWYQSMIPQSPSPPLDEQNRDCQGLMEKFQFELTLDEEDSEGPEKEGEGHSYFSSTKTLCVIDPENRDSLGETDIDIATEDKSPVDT

In the case of `CC(C)(O)c1coc(S(=O)(=O)NC(=O)Nc2c3c(cc4c2CCC4)CCC3)c1`, the IC50 [1] is reported as greater than 30 µM, the bioavailability [2] is reported as 68% and the half-life [3] is reported as 196 min.
Work on `CC1=C(C#N)[C@@H](c2ccc(C#N)cc2S(C)(=O)=O)N(C)C(=O)N1c1cccc(C(F)(F)F)c1` yielded a bioavailability [2] of 63% and a half-life [3] of 510 min.
Work on `CC(C)c1ncc(C(=O)N2CCOC3(CCN(Cc4ccc(F)c(CCNC[C@H](O)c5ccc(O)c6[nH]c(=O)sc56)c4)CC3)C2)s1` yielded an EC50 [4] of 0.251 nM and an IC50 [5] of 1.58 nM.
`COc1cccc(Nc2c(C(N)=O)cnc3c(C)cc(S(=O)(=O)c4cccc(C(=O)Nc5ccc(C#CCCCNC[C@H](O)c6ccc(O)c7[nH]c(=O)ccc67)cc5)c4)cc23)c1` showed an IC50 [6] of 11 nM and an IC50 [7] of 5 nM.
Compound `COc1ccc(Oc2ccc(S(=O)(=O)c3ccccc3CC(=O)NO)cc2)cc1` has an IC50 [8] of 0.2 nM.
For `COc1cc(NC(=O)CCN2CCC(OC(=O)Nc3ccccc3-c3ccccc3)CC2)c(Cl)cc1CNC[C@H](O)c1ccc(O)c2[nH]c(=O)ccc12` [BATEFENTEROL], the IC50 [5] was 1.58 nM.
Compound `C[N+]12CCC(CC1)C(OCC(O)(c1ccccc1)C1CCCC1)C2` (stereo unspecified) [BENCYCLOQUIDIUM BROMIDE] has a Ki [9] of 6.17 nM.
Work on `O=C(Nc1cc(C(F)(F)F)cc(C(F)(F)F)c1)c1cc(Cl)ccc1O` [IMD-0354] yielded an IC50 [10] of 1200 nM.
`COc1cc(NC(=O)OCCN(C)[C@H]2CC[C@H](OC(=O)C(O)(c3cccs3)c3cccs3)CC2)c(Cl)cc1CNC[C@H](O)c1ccc(O)c2[nH]c(=O)ccc12` [LAS190792] showed an EC50 [4] of 0.251 nM.
For `CN(CCCn1nnc2cc(CNC[C@H](O)c3ccc(O)c4[nH]c(=O)ccc34)ccc21)[C@H]1CC[C@H](OC(=O)C(O)(c2cccs2)c2cccs2)CC1` [NAVAFENTEROL], the EC50 [4] was 0.251 nM and the IC50 [5] was 1.58 nM.

From ChEMBL document CHEMBL4406790, “Targeted Treatments for Chronic Obstructive Pulmonary Disease (COPD) Using Low-Molecular-Weight Drugs (LMWDs)” (J Med Chem, 2019)
